Activity calls are given as the source filed them. How the calls were made is not given here.
system: Aspergillus niger; test: Antimicrobial activity against Aspergillus niger MTCC 281 at 500 ug/ml after 72 hrs by cup plate method; format: functional; details: MTCC 281, 72 h, read-out: IZ

Structure (SMILES) | zone of inhibition at 500 µg/mL [mm]
Cc1ccc2[nH]c(-c3ccccc3)c(C3C=C(c4ccccc4)Oc4[nH]c(=S)nc(N)c43)c2c1 (stereo not given) | 4
Cc1ccc(C2=CC(c3c(-c4ccccc4)[nH]c4ccccc34)c3c(nc[nH]c3=O)O2)cc1 (stereo not given) | 8

system: not listed separately; test: Antioxidant activity assessed as metal chelating activity by measuring inhibition of ferrozine-Fe2+ complex formation at 25 to 100 ug/ml; format: functional; details: not given

Structure (SMILES) | Activity
Cc1ccc2[nH]c(-c3ccccc3)c(C3C=C(c4ccccc4)Oc4[nH]c(=S)nc(N)c43)c2c1 (stereo not given) | Active
Cc1ccc(C2=CC(c3c(-c4ccccc4)[nH]c4ccccc34)c3c(nc[nH]c3=O)O2)cc1 (stereo not given) | Active

system: Escherichia coli; test: Antimicrobial activity against Escherichia coli MTCC 723 at 750 ug/ml after 24 hrs by cup plate method; format: functional; details: MTCC 723, 24 h, read-out: IZ

Structure (SMILES) | zone of inhibition at 750 µg/mL [mm]
Cc1ccc2[nH]c(-c3ccccc3)c(C3C=C(c4ccccc4)Oc4[nH]c(=S)nc(N)c43)c2c1 (stereo not given) | 8
Cc1ccc(C2=CC(c3c(-c4ccccc4)[nH]c4ccccc34)c3c(nc[nH]c3=O)O2)cc1 (stereo not given) | 3

system: Aspergillus flavus; test: Antimicrobial activity against Aspergillus flavus MTCC 1973 at 1000 ug/ml after 72 hrs by cup plate method; format: functional; details: MTCC 1973, 72 h, read-out: IZ

Structure (SMILES) | zone of inhibition at 1000 µg/mL [mm]
Cc1ccc2[nH]c(-c3ccccc3)c(C3C=C(c4ccccc4)Oc4[nH]c(=S)nc(N)c43)c2c1 (stereo not given) | 5
Cc1ccc(C2=CC(c3c(-c4ccccc4)[nH]c4ccccc34)c3c(nc[nH]c3=O)O2)cc1 (stereo not given) | 5

system: Aspergillus terreus; test: Antimicrobial activity against Aspergillus terreus MTCC 1782 at 750 ug/ml after 72 hrs by cup plate method; format: functional; details: MTCC 1782, 72 h, read-out: IZ

Structure (SMILES) | zone of inhibition at 750 µg/mL [mm]
Cc1ccc2[nH]c(-c3ccccc3)c(C3C=C(c4ccccc4)Oc4[nH]c(=S)nc(N)c43)c2c1 (stereo not given) | 8
Cc1ccc(C2=CC(c3c(-c4ccccc4)[nH]c4ccccc34)c3c(nc[nH]c3=O)O2)cc1 (stereo not given) | 8

system: Klebsiella pneumoniae; test: Antimicrobial activity against Klebsiella pneumoniae NCTC 13368 at 750 ug/ml after 24 hrs by cup plate method; format: functional; details: NCTC 13368, 24 h, read-out: IZ

Structure (SMILES) | zone of inhibition at 750 µg/mL [mm]
Cc1ccc2[nH]c(-c3ccccc3)c(C3C=C(c4ccccc4)Oc4[nH]c(=S)nc(N)c43)c2c1 (stereo not given) | 4
Cc1ccc(C2=CC(c3c(-c4ccccc4)[nH]c4ccccc34)c3c(nc[nH]c3=O)O2)cc1 (stereo not given) | 6

system: Aspergillus niger; test: Antimicrobial activity against Aspergillus niger MTCC 281 at 1000 ug/ml after 72 hrs by cup plate method; format: functional; details: MTCC 281, 72 h, read-out: IZ

Structure (SMILES) | zone of inhibition at 1000 µg/mL [mm]
Cc1ccc2[nH]c(-c3ccccc3)c(C3C=C(c4ccccc4)Oc4[nH]c(=S)nc(N)c43)c2c1 (stereo not given) | 8
Cc1ccc(C2=CC(c3c(-c4ccccc4)[nH]c4ccccc34)c3c(nc[nH]c3=O)O2)cc1 (stereo not given) | 11

system: Staphylococcus aureus; test: Antimicrobial activity against Staphylococcus aureus ATCC 29513 at 750 ug/ml after 24 hrs by cup plate method; format: functional; details: ATCC 29513, 24 h, read-out: IZ

Structure (SMILES) | zone of inhibition at 750 µg/mL [mm]
Cc1ccc2[nH]c(-c3ccccc3)c(C3C=C(c4ccccc4)Oc4[nH]c(=S)nc(N)c43)c2c1 (stereo not given) | 9
Cc1ccc(C2=CC(c3c(-c4ccccc4)[nH]c4ccccc34)c3c(nc[nH]c3=O)O2)cc1 (stereo not given) | 2

system: Aspergillus niger; test: Antimicrobial activity against Aspergillus niger MTCC 281 at 750 ug/ml after 72 hrs by cup plate method; format: functional; details: MTCC 281, 72 h, read-out: IZ

Structure (SMILES) | zone of inhibition at 750 µg/mL [mm]
Cc1ccc2[nH]c(-c3ccccc3)c(C3C=C(c4ccccc4)Oc4[nH]c(=S)nc(N)c43)c2c1 (stereo not given) | 3
Cc1ccc(C2=CC(c3c(-c4ccccc4)[nH]c4ccccc34)c3c(nc[nH]c3=O)O2)cc1 (stereo not given) | 8

system: Pseudomonas aeruginosa; test: Antimicrobial activity against Pseudomonas aeruginosa MTCC 1688 at 750 ug/ml after 24 hrs by cup plate method; format: functional; details: MTCC 1688, 24 h, read-out: IZ

Structure (SMILES) | zone of inhibition at 750 µg/mL [mm]
Cc1ccc2[nH]c(-c3ccccc3)c(C3C=C(c4ccccc4)Oc4[nH]c(=S)nc(N)c43)c2c1 (stereo not given) | 8
Cc1ccc(C2=CC(c3c(-c4ccccc4)[nH]c4ccccc34)c3c(nc[nH]c3=O)O2)cc1 (stereo not given) | 3

system: Aspergillus oryzae; test: Antimicrobial activity against Aspergillus oryzae MTCC 3567 at 750 ug/ml after 72 hrs by cup plate method; format: functional; details: MTCC 3567, 72 h, read-out: IZ

Structure (SMILES) | zone of inhibition at 750 µg/mL [mm]
Cc1ccc2[nH]c(-c3ccccc3)c(C3C=C(c4ccccc4)Oc4[nH]c(=S)nc(N)c43)c2c1 (stereo not given) | 3
Cc1ccc(C2=CC(c3c(-c4ccccc4)[nH]c4ccccc34)c3c(nc[nH]c3=O)O2)cc1 (stereo not given) | 3

system: Escherichia coli; test: Antimicrobial activity against Escherichia coli MTCC 723 at 500 ug/ml after 24 hrs by cup plate method; format: functional; details: MTCC 723, 24 h, read-out: IZ

Structure (SMILES) | zone of inhibition at 500 µg/mL [mm]
Cc1ccc2[nH]c(-c3ccccc3)c(C3C=C(c4ccccc4)Oc4[nH]c(=S)nc(N)c43)c2c1 (stereo not given) | 8
Cc1ccc(C2=CC(c3c(-c4ccccc4)[nH]c4ccccc34)c3c(nc[nH]c3=O)O2)cc1 (stereo not given) | 3

system: Escherichia coli; test: Antimicrobial activity against Escherichia coli MTCC 723 at 1000 ug/ml after 24 hrs by cup plate method; format: functional; details: MTCC 723, 24 h, read-out: IZ

Structure (SMILES) | zone of inhibition at 1000 µg/mL [mm]
Cc1ccc2[nH]c(-c3ccccc3)c(C3C=C(c4ccccc4)Oc4[nH]c(=S)nc(N)c43)c2c1 (stereo not given) | 8
Cc1ccc(C2=CC(c3c(-c4ccccc4)[nH]c4ccccc34)c3c(nc[nH]c3=O)O2)cc1 (stereo not given) | 3

system: Staphylococcus aureus; test: Antimicrobial activity against Staphylococcus aureus ATCC 29513 at 1000 ug/ml after 24 hrs by cup plate method; format: functional; details: ATCC 29513, 24 h, read-out: IZ

Structure (SMILES) | zone of inhibition at 1000 µg/mL [mm]
Cc1ccc2[nH]c(-c3ccccc3)c(C3C=C(c4ccccc4)Oc4[nH]c(=S)nc(N)c43)c2c1 (stereo not given) | 9
Cc1ccc(C2=CC(c3c(-c4ccccc4)[nH]c4ccccc34)c3c(nc[nH]c3=O)O2)cc1 (stereo not given) | 2

system: Aspergillus terreus; test: Antimicrobial activity against Aspergillus terreus MTCC 1782 at 1000 ug/ml after 72 hrs by cup plate method; format: functional; details: MTCC 1782, 72 h, read-out: IZ

Structure (SMILES) | zone of inhibition at 1000 µg/mL [mm]
Cc1ccc2[nH]c(-c3ccccc3)c(C3C=C(c4ccccc4)Oc4[nH]c(=S)nc(N)c43)c2c1 (stereo not given) | 8
Cc1ccc(C2=CC(c3c(-c4ccccc4)[nH]c4ccccc34)c3c(nc[nH]c3=O)O2)cc1 (stereo not given) | 8

system: Klebsiella pneumoniae; test: Antimicrobial activity against Klebsiella pneumoniae NCTC 13368 at 1000 ug/ml after 24 hrs by cup plate method; format: functional; details: NCTC 13368, 24 h, read-out: IZ

Structure (SMILES) | zone of inhibition at 1000 µg/mL [mm]
Cc1ccc2[nH]c(-c3ccccc3)c(C3C=C(c4ccccc4)Oc4[nH]c(=S)nc(N)c43)c2c1 (stereo not given) | 4
Cc1ccc(C2=CC(c3c(-c4ccccc4)[nH]c4ccccc34)c3c(nc[nH]c3=O)O2)cc1 (stereo not given) | 6

system: Aspergillus flavus; test: Antimicrobial activity against Aspergillus flavus MTCC 1973 at 750 ug/ml after 72 hrs by cup plate method; format: functional; details: MTCC 1973, 72 h, read-out: IZ

Structure (SMILES) | zone of inhibition at 750 µg/mL [mm]
Cc1ccc2[nH]c(-c3ccccc3)c(C3C=C(c4ccccc4)Oc4[nH]c(=S)nc(N)c43)c2c1 (stereo not given) | 6
Cc1ccc(C2=CC(c3c(-c4ccccc4)[nH]c4ccccc34)c3c(nc[nH]c3=O)O2)cc1 (stereo not given) | 3

system: Aspergillus terreus; test: Antimicrobial activity against Aspergillus terreus MTCC 1782 at 500 ug/ml after 72 hrs by cup plate method; format: functional; details: MTCC 1782, 72 h, read-out: IZ

Structure (SMILES) | zone of inhibition at 500 µg/mL [mm]
Cc1ccc2[nH]c(-c3ccccc3)c(C3C=C(c4ccccc4)Oc4[nH]c(=S)nc(N)c43)c2c1 (stereo not given) | 9
Cc1ccc(C2=CC(c3c(-c4ccccc4)[nH]c4ccccc34)c3c(nc[nH]c3=O)O2)cc1 (stereo not given) | 8

system: Aspergillus oryzae; test: Antimicrobial activity against Aspergillus oryzae MTCC 3567 at 500 ug/ml after 72 hrs by cup plate method; format: functional; details: MTCC 3567, 72 h, read-out: IZ

Structure (SMILES) | zone of inhibition at 500 µg/mL [mm]
Cc1ccc2[nH]c(-c3ccccc3)c(C3C=C(c4ccccc4)Oc4[nH]c(=S)nc(N)c43)c2c1 (stereo not given) | 3
Cc1ccc(C2=CC(c3c(-c4ccccc4)[nH]c4ccccc34)c3c(nc[nH]c3=O)O2)cc1 (stereo not given) | 3

system: Aspergillus flavus; test: Antimicrobial activity against Aspergillus flavus MTCC 1973 at 500 ug/ml after 72 hrs by cup plate method; format: functional; details: MTCC 1973, 72 h, read-out: IZ

Structure (SMILES) | zone of inhibition at 500 µg/mL [mm]
Cc1ccc2[nH]c(-c3ccccc3)c(C3C=C(c4ccccc4)Oc4[nH]c(=S)nc(N)c43)c2c1 (stereo not given) | 9
Cc1ccc(C2=CC(c3c(-c4ccccc4)[nH]c4ccccc34)c3c(nc[nH]c3=O)O2)cc1 (stereo not given) | 3

system: Pseudomonas aeruginosa; test: Antimicrobial activity against Pseudomonas aeruginosa MTCC 1688 at 1000 ug/ml after 24 hrs by cup plate method; format: functional; details: MTCC 1688, 24 h, read-out: IZ

Structure (SMILES) | zone of inhibition at 1000 µg/mL [mm]
Cc1ccc2[nH]c(-c3ccccc3)c(C3C=C(c4ccccc4)Oc4[nH]c(=S)nc(N)c43)c2c1 (stereo not given) | 8
Cc1ccc(C2=CC(c3c(-c4ccccc4)[nH]c4ccccc34)c3c(nc[nH]c3=O)O2)cc1 (stereo not given) | 3

system: Klebsiella pneumoniae; test: Antimicrobial activity against Klebsiella pneumoniae NCTC 13368 at 500 ug/ml after 24 hrs by cup plate method; format: functional; details: NCTC 13368, 24 h, read-out: IZ

Structure (SMILES) | zone of inhibition at 500 µg/mL [mm]
Cc1ccc2[nH]c(-c3ccccc3)c(C3C=C(c4ccccc4)Oc4[nH]c(=S)nc(N)c43)c2c1 (stereo not given) | 5
Cc1ccc(C2=CC(c3c(-c4ccccc4)[nH]c4ccccc34)c3c(nc[nH]c3=O)O2)cc1 (stereo not given) | 6

system: Pseudomonas aeruginosa; test: Antimicrobial activity against Pseudomonas aeruginosa MTCC 1688 at 500 ug/ml after 24 hrs by cup plate method; format: functional; details: MTCC 1688, 24 h, read-out: IZ

Structure (SMILES) | zone of inhibition at 500 µg/mL [mm]
Cc1ccc2[nH]c(-c3ccccc3)c(C3C=C(c4ccccc4)Oc4[nH]c(=S)nc(N)c43)c2c1 (stereo not given) | 9
Cc1ccc(C2=CC(c3c(-c4ccccc4)[nH]c4ccccc34)c3c(nc[nH]c3=O)O2)cc1 (stereo not given) | 4

system: Staphylococcus aureus; test: Antimicrobial activity against Staphylococcus aureus ATCC 29513 at 500 ug/ml after 24 hrs by cup plate method; format: functional; details: ATCC 29513, 24 h, read-out: IZ

Structure (SMILES) | zone of inhibition at 500 µg/mL [mm]
Cc1ccc2[nH]c(-c3ccccc3)c(C3C=C(c4ccccc4)Oc4[nH]c(=S)nc(N)c43)c2c1 (stereo not given) | 10
Cc1ccc(C2=CC(c3c(-c4ccccc4)[nH]c4ccccc34)c3c(nc[nH]c3=O)O2)cc1 (stereo not given) | 2

system: Aspergillus oryzae; test: Antimicrobial activity against Aspergillus oryzae MTCC 3567 at 1000 ug/ml after 72 hrs by cup plate method; format: functional; details: MTCC 3567, 72 h, read-out: IZ

Structure (SMILES) | zone of inhibition at 1000 µg/mL [mm]
Cc1ccc2[nH]c(-c3ccccc3)c(C3C=C(c4ccccc4)Oc4[nH]c(=S)nc(N)c43)c2c1 (stereo not given) | 3
Cc1ccc(C2=CC(c3c(-c4ccccc4)[nH]c4ccccc34)c3c(nc[nH]c3=O)O2)cc1 (stereo not given) | 3

— ChEMBL document CHEMBL2346657, “Synthesis of novel 2-amino-4-(5'-substituted 2'-phenyl-1H-indol-3'-yl)-6-aryl-4H-pyran-3-carbonitrile derivatives as antimicrobial and antioxidant agents” (2013)
